Data set [1] is described as follows: Non-hygroscopicity test (moisture content, Karl-Fisher titrator). The format is physicochemical. As to the method: The inventive azithromycin L-malate monohydrate was continuously exposed at 25 or 40° C. and 40 to 90% relative humidity for a period of over 15 days. The moisture contents of the inventive salt measured with a Karl-Fisher titrator at storage time 0, 3, 7 and 15 days are shown in Table 5 and FIG. 5.

Data set [2] in a line: Hygroscopicity of acid addition salts of azithromycin after storage. The class given is physicochemical. The note with it: after 24 hours storage at 40° C. and 75% relative humidity.
The nature of the next data set: in vivo. The note with it: beagle, dog, po, 20 mg/kg.
The next data set can be described thus: Water-solubility test. The format is physicochemical. The note with it: thermodynamic from solid, 25° C., based on amount of azithromycin dissolved. As to the method:
The azithromycin L-malate monohydrate of the present invention and azithromycin dihydrate were dissolved in deionized water and in phosphoric acid buffer solution (pH 7) to saturation, respectively. The water-solubility of each of the saturated solutions was analyzed by HPLC according to the procedure described in the US Pharmacopoeia, to determine the amount of azithromycin dissolved.

A short description of data set [3]: Heat stability test (remaining active azithromycin by HPLC). The class given is physicochemical. The settings on record: 60° C. and 75% relative humidity; for Amount of titrated azithromycin: sealed. As to the method:
The time-dependent stability at a high temperature of the inventive azithromycin L-malate monohydrate was measured and compared with that of the known azithromycin dihydrate.

For data set [4] the following is noted: dog, in vivo, po, 20 mg/kg.
Method: (§1) Specifically, twelve Marshall beagle dogs (Beijing, average weight: 9.5±0.5 kg) were divided with two groups each consisting of six dogs. Each of divided dogs was fasted for 16 hours and then orally administered with a single 20 mg/kg dose of the inventive azithromycin L-malate monohydrate (test group) or azithromycin dihydrate (control group) contained in a gelatin capsule. After administration, blood samples were periodically collected, followed by separating plasma therefrom. The azithromycin samples extracted from the plasma was subjected to LC/MS/MS analysis to measure the amount of azithromycin therein and to calculate pharmacokinetic parameters.
A short description of data set [5]: Moisture uptake of malate anhydrates exposed at 40° C. and 75% relative humidity. The format is physicochemical. The settings on record: exposed at 40° C. and 75% relative humidity for 10 hours.
The conditions of data set [6]: 37° C.; cited from earlier work.
Data set [7] can be described thus: Pharmacokinetic test, azithromycin concentration in blood. The settings on record: beagle, dog, plasma, po, 20 mg/kg.
Method: as §1
Setting [8] is: deionized water, water, read-out: Solubility, deionized water.
[9] abbreviates: phosphoric acid buffer solution, aqueous buffer, phosphoric acid buffer pH 7, read-out: Solubility, buffer solution (pH 7).

Where two headings read alike, the source gives them in different places. A value given as a limit tells only on which side of the number the result lay.

Method for in vivo: as §1

Turning to `CC[C@H]1OC(=O)[C@H](C)[C@@H](O[C@H]2C[C@@](C)(OC)[C@@H](O)[C@H](C)O2)[C@H](C)[C@@H](O[C@@H]2O[C@H](C)C[C@H](N(C)C)[C@H]2O)[C@](C)(O)C[C@@H](C)CN(C)[C@H](C)[C@@H](O)[C@]1(C)O.O=C(O)C[C@H](O)C(=O)O` [Azithromycin L-malate monohydrate, azithromycin L-malate monohydrate], the “Hygroscopicity (in words)” value in data set [1] (25 or 40° C., 40 to 90% relative humidity, 15 days) is listed as “largely non-hygroscopic”. Besides, the Moisture content in [1] (40% relative humidity, 25° C., 3 days) is listed as 1.78 wt %; in data set [1] (40% relative humidity, 25° C., 7 days) it was 1.75 wt %; in data set [1] (40% relative humidity, 25° C., 15 days) it was 1.73 wt %; in [1] (40% relative humidity, 25° C., initial) it was 1.75 wt %; in data set [1] (60% relative humidity, 25° C., 3 days), 1.82 wt %; in data set [1] (60% relative humidity, 25° C., 7 days), 1.80 wt %. Also, the Moisture content in [1] (60% relative humidity, 25° C., 15 days) is reported as 1.80 wt %; in data set [1] (60% relative humidity, 25° C., initial), 1.75 wt %; in [1] (75% relative humidity, 40° C., 3 days), 1.80 wt %; in [1] (75% relative humidity, 40° C., 7 days), 1.82 wt %; in data set [1] (75% relative humidity, 40° C., 15 days), 1.85 wt %; in [1] (75% relative humidity, 40° C., initial) it was 1.75 wt %. Besides, the Moisture content in [1] (90% relative humidity, 40° C., 3 days) was determined as 1.87 wt %; in data set [1] (90% relative humidity, 40° C., 7 days), 1.85 wt %; in [1] (90% relative humidity, 40° C., 15 days), 1.85 wt %; in [1] (90% relative humidity, 40° C., initial) it was 1.75 wt %. Also, the “Salt form (hygroscopicity)” value in data set [2] was “Crystalline, non-hygroscopic^c)”. Moreover, in the data set “in vivo”, the Cmax (commonly the highest concentration seen after dosing) is 3780 ± 1380 ng/mL. Moreover, the Tmax (usually the time at which the peak concentration occurs) in “in vivo” is 36 ± 12 min. Besides, the exposure AUC(0-t) (usually exposure summed from dosing to a finite time, without extrapolation to infinity) in “in vivo” (AUC0-24) was 27600 ± 6860 ng·h/mL; in the data set “in vivo” (AUC0-48), 37300 ± 8830 ng·h/mL. In addition, the solubility – broadly, the concentration that dissolves in the medium under given conditions – stood at 393 mg/mL in “Water-solubility test” (setting [8]) and 392 mg/mL in “Water-solubility test” (setting [9]). In addition, the “Heat stability (in words)” value in data set [3] (28 days) is given as “highly stable”. Besides, the “Amount of titrated azithromycin” value in data set [3] (7 days) worked out at 984.6 µg/mg; in [3] (14 days), 985.1 µg/mg; in data set [3] (21 days), 987.0 µg/mg; in data set [3] (28 days), 985.4 µg/mg; in data set [3] (initial) it was 986.4 µg/mg. Besides, in data set [4], the “AUC0-24, T group/C group” value worked out at 1.34. Besides, the “AUC0-48, T group/C group” value in [4] is listed as 1.34. The “Cmax compared with azithromycin dihydrate (in words)” value in data set [4] is “about two times higher”. The “Cmax, T group/C group” value in data set [4] came out at 1.94. For the same molecule, the “Tmax, T group/C group” value in [4] is recorded as 0.75.
For the molecule 2-naphthalene sulfonic acid, the “Salt form (hygroscopicity)” value in [2] is “Crystalline, hygroscopic”.
Consider Fumaric acid, for which, in [2], the “Salt form (hygroscopicity)” value is listed as “Crystalline, hygroscopic”.
On the same count and under the same terms, to `Cl` [Hydrochloric acid] belongs “Amorphous, hygroscopic”; to Maleic acid, “Amorphous, hygroscopic”.
As for Azithromycin D-Malate Anhydrate, in data set [5], the “Increase of moisture content” value is reported as no less than 8%. Also, the “Salt form (hygroscopicity)” value in [2] is “Crystalline, hygroscopic^f)”.
With `CC[C@H]1OC(=O)[C@H](C)[C@@H](O[C@H]2C[C@@](C)(OC)[C@@H](O)[C@H](C)O2)[C@H](C)[C@@H](O[C@@H]2O[C@H](C)C[C@H](N(C)C)[C@H]2O)[C@](C)(O)C[C@@H](C)CN(C)[C@H](C)[C@@H](O)[C@]1(C)O.O=C(O)CC(O)C(=O)O` (racemic) [DL-malate anhydrate, Azithromycin DL-Malate Anhydrate], in [5], the “Moisture content increased to” value is no less than 6%. In addition, the “Salt form (hygroscopicity)” value in [2] was “Crystalline, hygroscopic^e)”.
Regarding `CCC1OC(=O)C(C)C(OC2CC(C)(OC)C(O)C(C)O2)C(C)C(OC2OC(C)CC(N(C)C)C2O)C(C)(O)CC(C)CN(C)C(C)C(O)C1(C)O.O=C(O)CC(O)C(=O)O` [L-malate anhydrate, Azithromycin L-Malate Anhydrate], the “Increase of moisture content” value in data set [5] is recorded as “about 2.0%”. Also, the “Salt form (hygroscopicity)” value in [2] is “Crystalline, hygroscopic^d)”.
In the case of `Br` [Hydrobromic acid], the “Salt form (hygroscopicity)” value in data set [2] is recorded as “Amorphous, hygroscopic”.
On the same count and under the same terms, in the case of Citric acid it was “Amorphous, hygroscopic”; in that of `O=S(=O)(O)O` [Sulfuric acid], “Amorphous, hygroscopic”.
Still for that read-out and setting: to `Cc1ccc(S(=O)(=O)O)cc1` [p-toluene sulfonic acid] belongs “Amorphous, hygroscopic”.
The molecule `CC[C@H]1OC(=O)[C@H](C)[C@@H](O[C@H]2C[C@@](C)(OC)[C@@H](O)[C@H](C)O2)[C@H](C)[C@@H](O[C@@H]2O[C@H](C)C[C@H](N(C)C)[C@H]2O)[C@](C)(O)C[C@@H](C)CN(C)[C@H](C)[C@@H](O)[C@]1(C)O` [Azithromycin dihydrate, 9-deoxo-9a-aza-9a-methyl-9a-homoerythromycin A, reference compound] returned a Cmax in “in vivo” of 1950 ± 710 ng/mL. For the same molecule, the exposure AUC(0-t) in “in vivo” (AUC0-24) was 20600 ± 6640 ng·h/mL; in the data set “in vivo” (AUC0-48), 27900 ± 9710 ng·h/mL. Besides, the values for the solubility in “Water-solubility test” (setting [8]) and in the data set “Water-solubility test” (setting [9]) were 0.1 mg/mL and 5.1 mg/mL, respectively. Moreover, the Water-solubility in data set [6] was 1.1 mg/mL. The “Heat stability (in words)” value in data set [3] (28 days) was “significant degradation”. Moreover, the “Amount of titrated azithromycin” value stood at 974.6 µg/mg in [3] (7 days); 975.3 µg/mg in data set [3] (14 days); 973.2 µg/mg in data set [3] (21 days); 971.6 µg/mg in [3] (28 days); 976.5 µg/mg in [3] (initial). The Tmax in [7] turned out to be 48 ± 18 min.
On to `O=C(O)[C@H](O)[C@@H](O)C(=O)O` [L-Tartaric acid], for which, in data set [2], the “Salt form (hygroscopicity)” value is given as “Crystalline, hygroscopic”.

Values taken from patent US20090318375A1, “Crystalline Azithromycin L-Malate Monohydrate and Pharmaceutical Composition Containing Same” (Hanmi Pharm Co., Ltd, priority 2003, published 2009).
